These molecules were tested against bacterial strain LF82 binding to the glycoprotein BSA-(Mannose)3 (assay: Bacterial Binding Assay (BBA)). Conditions: LF82/Luciferase strain binding to BSA-(Man)3 coated plates, luminescence; read-out: Bacterial Binding Assay IC50.
Type: cell-based, Escherichia coli
How it was run: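 Inhibition of LF82/luciferase E. coli adhesion is read as luminescence after washing off unbound cells. Compound and bacteria (10^7 per well) are co-incubated 40-75 min at room temperature on wells coated with 0.5-2 μg/mL BSA-(Man)3, with BSA-only wells as background; IC50 values derived.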

Row | Structure (SMILES) | IC50 [nM]
1 | OC[C@H]1O[C@H](C#Cc2ccc(-c3ccc(C#C[C@H]4O[C@H](CO)[C@@H](O)[C@H](O)[C@@H]4O)s3)s2)[C@@H](O)[C@@H](O)[C@@H]1O [Compound 128] | 22

Same assay, conditions: read-out: Bacterial Binding Assay IC50, LF82/Luciferase strain binding to BSA-(Man)3 coated plates, luminescence

Row | Structure (SMILES) | IC50 [nM]
2 | OC[C@H]1O[C@H](C#Cc2ccc3c(c2)[nH]c2cc(C#C[C@H]4O[C@H](CO)[C@@H](O)[C@H](O)[C@@H]4O)ccc23)[C@@H](O)[C@@H](O)[C@@H]1O [Compound 118, (2R,3S,4R,5S,6R)-2-(hydroxymethyl)-6-[2-[7-[2-[(2R,3S,4R,5S,6R)-3,4,5-trihydroxy-6-(hydroxymethyl)tetrahydropyran-2-yl]ethynyl]-9H-carbazol-2-yl]ethynyl]tetrahydropyran-3,4,5-triol] | 22
3 | OC[C@H]1O[C@H](C#Cc2ccc(C#C[C@H]3O[C@H](CO)[C@@H](O)[C@H](O)[C@@H]3O)c(C(F)(F)F)c2)[C@@H](O)[C@@H](O)[C@@H]1O [Compound 91, (2R,3S,4R,5S,6R)-2-(hydroxymethyl)-6-[2-[3-(trifluoromethyl)-4-[2-[(2R,3S,4R,5S,6R)-3,4,5-trihydroxy-6-(hydroxymethyl)tetrahydropyran-2-yl]ethynyl]phenyl]ethynyl]tetrahydropyran-3,4,5-triol] | 58
4 | COc1cc([C@H]2O[C@H](CO)[C@@H](O)[C@H](O)[C@@H]2O)ccc1-c1ccc([C@H]2O[C@H](CO)[C@@H](O)[C@H](O)[C@@H]2O)cc1 [Compound 67] | 40
5 | CC(C)Oc1cc(C#C[C@H]2O[C@H](CO)[C@@H](O)[C@H](O)[C@@H]2O)ccc1C#C[C@H]1O[C@H](CO)[C@@H](O)[C@H](O)[C@@H]1O [Compound 83, (2R,3S,4R,5S,6R)-2-(hydroxymethyl)-6-[2-[3-isopropoxy-4-[2-[(2R,3S,4R,5S,6R)-3,4,5-trihydroxy-6-(hydroxymethyl)tetrahydropyran-2-yl]ethynyl]phenyl]ethynyl]tetrahydropyran-3,4,5-triol] | 3.8
6 | CC(C)(C#N)c1cc(C#C[C@H]2O[C@H](CO)[C@@H](O)[C@H](O)[C@@H]2O)ccc1C#C[C@H]1O[C@H](CO)[C@@H](O)[C@H](O)[C@@H]1O [Compound 70] | 15
7 | OC[C@H]1O[C@H](C#Cc2ccc3c(c2)C2(CCCCO2)c2cc(C#C[C@H]4O[C@H](CO)[C@@H](O)[C@H](O)[C@@H]4O)ccc2-3)[C@@H](O)[C@@H](O)[C@@H]1O (stereo partly drawn) [Compound 199] | 0.21
8 | OC[C@H]1O[C@H](C#Cc2ccc3c(c2)C2(C[C@@H](O)[C@@H](O)C2)c2cc(C#C[C@H]4O[C@H](CO)[C@@H](O)[C@H](O)[C@@H]4O)ccc2-3)[C@@H](O)[C@@H](O)[C@@H]1O (stereo partly drawn) [Compound 194, (2R,3 S,4R,5S,6R)-2-[2-[(3R,4S)-3,4-Dihydroxy-7[2-[(2R,3 S,4R,5S,6R)-3,4,5-trihydroxy-6-(hydroxymethyl)tetrahydropyran-2-yl]ethynyl]spiro[cyclopentane-1,9fluorene]-2yl]ethynyl]-6-(hydroxymethyl)tetrahydropyran-3,4,5-triol] | 0.27
9 | CCOC(=O)Cn1c2cc(C#C[C@H]3O[C@H](CO)[C@@H](O)[C@H](O)[C@@H]3O)ccc2c2ccc(C#C[C@H]3O[C@H](CO)[C@@H](O)[C@H](O)[C@@H]3O)cc21 [Compound 175, ethyl 2-[2,7-bis[2-[(2R,3S,4R,5S,6R)-3,4,5-trihydroxy-6-(hydroxymethyl)tetrahydropyran-2-yl]ethynyl]carbazol-9-yl]acetate] | 6.5
10 | CCCn1c2cc(C#C[C@H]3O[C@H](CO)[C@@H](O)[C@H](O)[C@@H]3O)ccc2c2ccc(C#C[C@H]3O[C@H](CO)[C@@H](O)[C@H](O)[C@@H]3O)cc21 [Compound 110, (2R,3S,4R,5S,6R)-2-(hydroxymethyl)-6-[2-[9-propyl-7-[2-[(2R,3S,4R,5S,6R)-3,4,5-trihydroxy-6-(hydroxymethyl)tetrahydropyran-2-yl]ethynyl]carbazol-2-yl]ethynyl]tetrahydropyran-3,4,5-triol] | 0.89
11 | O=C(c1ccn[nH]1)N1CCC2(CC1)c1cc(C#C[C@H]3O[C@H](CO)[C@@H](O)[C@H](O)[C@@H]3O)ccc1-c1ccc(C#C[C@H]3O[C@H](CO)[C@@H](O)[C@H](O)[C@@H]3O)cc12 [Compound 231] | 0.08
12 | CCCCCC1(O)c2cc(C#C[C@H]3O[C@H](CO)[C@@H](O)[C@H](O)[C@@H]3O)ccc2-c2ccc(C#C[C@H]3O[C@H](CO)[C@@H](O)[C@H](O)[C@@H]3O)cc21 [Compound 113, (2R,3S,4R,5S,6R)-2-(hydroxymethyl)-6-[2-[9-hydroxy-9-pentyl-7-[2-[(2R,3S,4R,5S,6R)-3,4,5-trihydroxy-6-(hydroxymethyl)tetrahydropyran-2-yl]ethynyl]fluoren-2-yl]ethynyl]tetrahydropyran-3,4,5-triol] | 5.5
13 | CN1CCN(CCNC(=O)Cn2c3cc(C#C[C@H]4O[C@H](CO)[C@@H](O)[C@H](O)[C@@H]4O)ccc3c3ccc(C#C[C@H]4O[C@H](CO)[C@@H](O)[C@H](O)[C@@H]4O)cc32)CC1 [Compound 177, 2-[2,7-bis[2-[(2R,3S,4R,5S,6R)-3,4,5-trihydroxy-6-(hydroxymethyl)tetrahydropyran-2-yl]ethynyl]carbazol-9-yl]-N-[2-(4-methylpiperazin-1-yl)ethyl]acetamide] | 0.66
14 | O=C(c1c(C#C[C@H]2O[C@H](CO)[C@@H](O)[C@H](O)[C@@H]2O)ccc2c1C1(CCNCC1)c1cc(C#C[C@H]3O[C@H](CO)[C@@H](O)[C@H](O)[C@@H]3O)ccc1-2)C1CC1(F)F (stereo partly drawn) [Compound 235, [2,7-bis[2-[(2R,3S,4R,5S,6R)-3,4,5-trihydroxy-6-(hydroxymethyl)tetrahydropyran-2-yl]ethynyl]spiro[fluorene-9,4piperidine]-1yl]-(2,2-difluorocyclopropyl)methanone] | 0.03
15 | OC[C@H]1O[C@H](C#Cc2cc3cc(C#C[C@H]4O[C@H](CO)[C@@H](O)[C@H](O)[C@@H]4O)sc3s2)[C@@H](O)[C@@H](O)[C@@H]1O [Compound 123, (2R,3S,4R,5S,6R)-2-(hydroxymethyl)-6-[2-[5-[2-[(2R,3S,4R,5S,6R)-3,4,5-trihydroxy-6-(hydroxymethyl)tetrahydropyran-2-yl]ethynyl]thieno[2,3-b]thiophen-2-yl]ethynyl]tetrahydropyran-3,4,5-triol] | 41
16 | Cc1cc([C@H]2O[C@H](CO)[C@@H](O)[C@H](O)[C@@H]2O)ccc1-c1ccc([C@H]2O[C@H](CO)[C@@H](O)[C@H](O)[C@@H]2O)c(C)c1 [Compound 149] | 27
17 | Cc1c(C#C[C@H]2O[C@H](CO)[C@@H](O)[C@H](O)[C@@H]2O)ccc(C#C[C@H]2O[C@H](CO)[C@@H](O)[C@H](O)[C@@H]2O)c1C [Compound 99, (2R,3S,4R,5S,6R)-2-[2-[2,3-dimethy1-4-[2-[(2R,3S,4R,5S,6R)-3,4,5-trihydroxy-6-(hydroxymethyl)tetrahydropyran-2-yl]ethynyl]phenyl]ethynyl]-6-(hydroxymethyl)tetrahydropyran-3,4,5-triol] | 145
18 | Cc1cc(C#C[C@H]2O[C@H](CO)[C@@H](O)[C@H](O)[C@@H]2O)ccc1C#C[C@H]1O[C@H](CO)[C@@H](O)[C@H](O)[C@@H]1O [Compound 104, (2R,3S,4R,5S,6R)-2-(hydroxymethyl)-6-[2-[3-methyl-4-[2-[(2R,3S,4R,5S,6R)-3,4,5-trihydroxy-6-(hydroxymethyl)tetrahydropyran-2-yl]ethynyl]phenyl]ethynyl]tetrahydropyran-3,4,5-triol] | 34

From patent US11634447B2 (priority 2012, dated 2023)
